Measured values from ChEMBL document CHEMBL1240448, “Synthesis of N-methyl-bisindolylmaleimide amino acid methyl ester conjugates and cytotoxicity study” (Eur J Med Chem, 2010).

Tests used:
[1] = tested on: HCT-8; assay: Cytotoxicity against human HCT8 cells after 96 hrs by MTT assay; conditions: HCT-8, 96 h
[2] = tested on: MCF7; assay: Cytotoxicity against human MCF7 cells after 96 hrs by MTT assay; conditions: MCF7, 96 h
[3] = tested on: A549; assay: Cytotoxicity against human A549 cells after 96 hrs by MTT assay; conditions: A549, 96 h
[4] = tested on: A2780; assay: Cytotoxicity against human A2780 cells after 96 hrs by MTT assay; conditions: A2780, 96 h
[5] = tested on: BGC-823; assay: Cytotoxicity against human BGC823 cells after 96 hrs by MTT assay; conditions: BGC-823, 96 h
[6] = tested on: Bel-7402; assay: Cytotoxicity against human Bel7402 cells after 96 hrs by MTT assay; conditions: Bel-7402, 96 h

| SMILES | IC50 [1] | IC50 [2] | IC50 [3] | IC50 [4] | IC50 [5] | IC50 [6] |
| --- | --- | --- | --- | --- | --- | --- |
| COC(=O)CNC(=O)Cn1cc(C2=C(c3c[nH]c4ccccc34)C(=O)N(C)C2=O)c2ccccc21 | 22.9 µM | 36 µM | 78.3 µM | 33.9 µM | 88.4 µM | 28.4 µM |
| COC(=O)C(Cc1ccccc1)NC(=O)Cn1cc(C2=C(c3c[nH]c4ccccc34)C(=O)N(C)C2=O)c2ccccc21 (single isomer, unassigned) | 72.4 µM | 95.3 µM | 88.1 µM | 77.9 µM | 98 µM | 96.7 µM |
| COC(=O)CCC(NC(=O)Cn1cc(C2=C(c3c[nH]c4ccccc34)C(=O)N(C)C2=O)c2ccccc21)C(=O)OC (single isomer, unassigned) | 29.2 µM | 23.4 µM | 73.7 µM | 32.3 µM | 25 µM | 47.4 µM |
| COC(=O)C(Cc1ccc(O)cc1)NC(=O)Cn1cc(C2=C(c3c[nH]c4ccccc34)C(=O)N(C)C2=O)c2ccccc21 (single isomer, unassigned) | 93.2 µM | 51.7 µM | > 100 µM | > 100 µM | > 100 µM | 28.1 µM |
| COC(=O)[C@@H](CO)NC(=O)Cn1cc(C2=C(c3c[nH]c4ccccc34)C(=O)N(C)C2=O)c2ccccc21 | 22.9 µM | 24.5 µM | 37.9 µM | 23.2 µM | 28.9 µM | 67.2 µM |
| COC(=O)CC(NC(=O)Cn1cc(C2=C(c3c[nH]c4ccccc34)C(=O)N(C)C2=O)c2ccccc21)C(=O)OC (single isomer, unassigned) | 23.4 µM | 25.8 µM | 74.2 µM | 15.4 µM | 24.6 µM | 9.36 µM |
| COC(=O)CCNC(=O)Cn1cc(C2=C(c3c[nH]c4ccccc34)C(=O)N(C)C2=O)c2ccccc21 | 50.9 µM | 47.8 µM | 37.6 µM | 44.5 µM | 44.9 µM | 28.4 µM |
| COC(=O)C(CC(C)C)NC(=O)Cn1cc(C2=C(c3c[nH]c4ccccc34)C(=O)N(C)C2=O)c2ccccc21 (single isomer, unassigned) | 37.8 µM | 37.4 µM | > 100 µM | 38.5 µM | 45.5 µM | 42.4 µM |
| CC[C@H](C)[C@@H](NC(=O)Cn1cc(C2=C(c3c[nH]c4ccccc34)C(=O)N(C)C2=O)c2ccccc21)C(=O)OC | > 100 µM | > 100 µM | > 100 µM | > 100 µM | > 100 µM | > 100 µM |
| COC(=O)C(C)NC(=O)Cn1cc(C2=C(c3c[nH]c4ccccc34)C(=O)N(C)C2=O)c2ccccc21 (single isomer, unassigned) | 21.4 µM | 15.3 µM | 30.5 µM | 15.8 µM | 60.4 µM | 9.34 µM |
| COC(=O)C(Cc1c[nH]c2ccccc12)NC(=O)Cn1cc(C2=C(c3c[nH]c4ccccc34)C(=O)N(C)C2=O)c2ccccc21 (single isomer, unassigned) | 9.19 µM | 4.83 µM | 45.2 µM | 5.39 µM | 3.73 µM | 4.11 µM |
| COC(=O)C(Cc1ccc(O)c(O)c1)NC(=O)Cn1cc(C2=C(c3c[nH]c4ccccc34)C(=O)N(C)C2=O)c2ccccc21 (single isomer, unassigned) | > 100 µM | > 100 µM | > 100 µM | > 100 µM | > 100 µM | > 100 µM |
| COC(=O)[C@H](NC(=O)Cn1cc(C2=C(c3c[nH]c4ccccc34)C(=O)N(C)C2=O)c2ccccc21)[C@@H](C)O (single isomer, unassigned) | 23.4 µM | 22.9 µM | 25.7 µM | 21.4 µM | 23.3 µM | > 100 µM |
| COC(=O)[C@H](NC(=O)Cn1cc(C2=C(c3c[nH]c4ccccc34)C(=O)N(C)C2=O)c2ccccc21)C(C)C | 25.8 µM | 16 µM | 30.6 µM | 23.8 µM | 48.2 µM | 4.01 µM |
